Measured values reported in patent US9693556B2, “Herbicidal pyridazinone derivatives” (SYNGENTA LIMITED, priority 2011, dated 2017).

Columns and labels:
Format in all cases: in vivo
Solanum nigrum (SOLNI) [1] = assay: Post-emergence herbicidal glasshouse test on Solanum nigrum; settings: post-emergence; 1000 g/h; evaluated after 13 days
Method: (§1) Seeds of a variety of test species are sown in standard soil in pots (Alopecurus myosuroides (ALOMY), Setaria faberi (SETFA), Echinochloa crus-galli (ECHCG), Solanum nigrum (SOLNI), Amaranthus retoflexus (AMARE), Ipomoea hederacea (IPOHE)). After cultivation for one day (pre-emergence) or after 8 days cultivation (post-emergence) under controlled conditions in a glasshouse (at 24/16° C., day/night; 14 hours light; 65% humidity), the plants are sprayed with an aqueous spray solution derived from the formulation of the technical active ingredient in acetone/water (50:50) solution containing 0.5% Tween 20 (polyoxyethelyene sorbitan monolaurate, CAS RN 9005-64-5). Compounds are applied at 1000 g/h. The test plants are then grown in a glasshouse under controlled conditions in a glasshouse (at 24/16° C., day/night; 14 hours light; 65% humidity) and watered twice daily. After 13 days for pre and post-emergence, the test is evaluated for the percentage herbicidal damage caused to the plant. The biological activities are shown in the following table on a five point scale (5=80-100% damage; 4=60-79% damage; 3=40-59% damage; 2=20-39% damage; 1=0-19% damage).

[2] = test system: Amaranthus retoflexus (AMARE); assay: Post-emergence herbicidal glasshouse test on Amaranthus retoflexus; settings: post-emergence; 1000 g/h; evaluated after 13 days
Method: as §1

[3] = test system: Alopecurus myosuroides (ALOMY); assay: Post-emergence herbicidal glasshouse test on Alopecurus myosuroides; settings: post-emergence; 1000 g/h; evaluated after 13 days
Method: as §1

[4] = test system: Ipomoea hederacea (IPOHE); assay: Pre-emergence herbicidal glasshouse test on Ipomoea hederacea; settings: pre-emergence; 1000 g/h; evaluated after 13 days
Method: as §1

Solanum nigrum (SOLNI) [5] = assay: Pre-emergence herbicidal glasshouse test on Solanum nigrum; settings: pre-emergence; 1000 g/h; evaluated after 13 days
Method: as §1

[6] = test system: Echinochloa crus-galli (ECHCG); assay: Pre-emergence herbicidal glasshouse test on Echinochloa crus-galli; settings: pre-emergence; 1000 g/h; evaluated after 13 days
Method: as §1

[7] = test system: Alopecurus myosuroides (ALOMY); assay: Pre-emergence herbicidal glasshouse test on Alopecurus myosuroides; settings: pre-emergence; 1000 g/h; evaluated after 13 days
Method: as §1

[8] = test system: Echinochloa crus-galli (ECHCG); assay: Post-emergence herbicidal glasshouse test on Echinochloa crus-galli; settings: post-emergence; 1000 g/h; evaluated after 13 days
Method: as §1

Setaria faberi (SETFA) [9] = assay: Pre-emergence herbicidal glasshouse test on Setaria faberi; settings: pre-emergence; 1000 g/h; evaluated after 13 days
Method: as §1

Setaria faberi (SETFA) [10] = assay: Post-emergence herbicidal glasshouse test on Setaria faberi; settings: post-emergence; 1000 g/h; evaluated after 13 days
Method: as §1

[11] = test system: Amaranthus retoflexus (AMARE); assay: Pre-emergence herbicidal glasshouse test on Amaranthus retoflexus; settings: pre-emergence; 1000 g/h; evaluated after 13 days
Method: as §1

[12] = test system: Ipomoea hederacea (IPOHE); assay: Post-emergence herbicidal glasshouse test on Ipomoea hederacea; settings: post-emergence; 1000 g/h; evaluated after 13 days
Method: as §1

Structure (SMILES)	POST Application SOLNI herbicidal damage (five point scale) (Solanum nigrum (SOLNI) [1])	POST Application AMARE herbicidal damage (five point scale) [2]	POST Application ALOMY herbicidal damage (five point scale) [3]	PRE Application IPOHE herbicidal damage (five point scale) [4]	PRE Application SOLNI herbicidal damage (five point scale) (Solanum nigrum (SOLNI) [5])	PRE Application ECHCG herbicidal damage (five point scale) [6]	PRE Application ALOMY herbicidal damage (five point scale) [7]	POST Application ECHCG herbicidal damage (five point scale) [8]	PRE Application SETFA herbicidal damage (five point scale) (Setaria faberi (SETFA) [9])	POST Application SETFA herbicidal damage (five point scale) (Setaria faberi (SETFA) [10])	PRE Application AMARE herbicidal damage (five point scale) [11]	POST Application IPOHE herbicidal damage (five point scale) [12]
Cc1nc(C(F)(F)F)ccc1-c1cnn(C)c(=O)c1O [Compound 1.067]	5 (5=80-100% damage)	5 (5=80-100% damage)	2 (2=20-39% damage)	2 (2=20-39% damage)	3 (3=40-59% damage)	5 (5=80-100% damage)	1 (1=0-19% damage)	5 (5=80-100% damage)	1 (1=0-19% damage)	4 (4=60-79% damage)	4 (4=60-79% damage)	5 (5=80-100% damage)
COCCOCc1nc(C(F)(F)F)ccc1-c1cnn(C)c(=O)c1O [Compound 1.072]	5 (5=80-100% damage)	5 (5=80-100% damage)	4 (4=60-79% damage)	5 (5=80-100% damage)	5 (5=80-100% damage)	5 (5=80-100% damage)	4 (4=60-79% damage)	5 (5=80-100% damage)	5 (5=80-100% damage)	5 (5=80-100% damage)	5 (5=80-100% damage)	5 (5=80-100% damage)
Cn1ncc(-c2ccc(Cl)cc2S(C)(=O)=O)c(O)c1=O [Compound 1.061]	5 (5=80-100% damage)	5 (5=80-100% damage)	5 (5=80-100% damage)	4 (4=60-79% damage)	5 (5=80-100% damage)	5 (5=80-100% damage)	5 (5=80-100% damage)	5 (5=80-100% damage)	5 (5=80-100% damage)	5 (5=80-100% damage)	5 (5=80-100% damage)	5 (5=80-100% damage)
Cn1ncc(-c2c(Br)cccc2S(C)(=O)=O)c(O)c1=O [Compound 1.106]	4 (4=60-79% damage)	5 (5=80-100% damage)	2 (2=20-39% damage)	1 (1=0-19% damage)	1 (1=0-19% damage)	1 (1=0-19% damage)	1 (1=0-19% damage)	4 (4=60-79% damage)	1 (1=0-19% damage)	2 (2=20-39% damage)	4 (4=60-79% damage)	2 (2=20-39% damage)
Cc1ccc(Cl)c(-c2cnn(C)c(=O)c2O)c1 [Compound 1.101]	1 (1=0-19% damage)	1 (1=0-19% damage)	1 (1=0-19% damage)	1 (1=0-19% damage)	1 (1=0-19% damage)	1 (1=0-19% damage)	1 (1=0-19% damage)	1 (1=0-19% damage)	1 (1=0-19% damage)	1 (1=0-19% damage)	1 (1=0-19% damage)	1 (1=0-19% damage)
